What was measured:
SMAD1/5/8 signaling = SMAD1/5/8 signaling by Western blot in P19 cells; format: cell-based, murine; settings: 4 h
Description: P19 cells were seeded in 6-well-plates (3.5×10^5 cells/well). On the following day, the cells were either untreated or treated with 5×10^−7 M RA, 5 ng/ml BMP-2 or SMs for 4 h. Cells were washed with ice cold PBS, harvested and lysed with ice cold RIPA buffer (Sigma-Aldrich) supplemented with protease inhibitor cocktail and sodium orthovanadate (Na3VO4) as phosphatase inhibitor (Sigma-Aldrich). Protein concentrations were determined using a BCA protein assay kit (Pierce, Rockford, Ill.). Cell lysates (40-60 μg protein) were separated by 4-15% SDS-PAGE gel electrophoresis and then transferred to nitrocellulose membranes at 0.2 A for 2 h. The membranes were blocked at room temperature for 1 h in 5% (w/v) non-fat-dried milk and then incubated with anti-phospho-Smad1/5/9, anti-Smad1 (Cell signaling Technology, Beverly, Mass., USA) and anti-tubulin (Sigma-Aldrich) antibodies at room temperature for 2 h. The membranes were washed and incubated with alkaline phosphatase-conjugated secondary antibody (Jackson Laboratories Immune Research, PA, USA). Signal was detected using enhanced chemiluminescence kit (Clarity, Bio-Rad Laboratories, Richmond, Calif.) and digital images were captured by MicroChemi (DNR Bio-imaging Systems, Jerusalem, Israel). Protein levels were quantified using ImageJ software and normalized to {alpha}-tubulin.
The canonical BMP signal is known to be mediated via SMAD phosphorylation. BMPs transduce signals by binding to complexes of type I and II serine/threonine kinase receptors. Ligand binding induces phosphorylation of the receptors, which then activate canonical signaling via receptor Smads (R-Smads) 1, 5 and 8. R-Smads are phosphorylated by the activated type I receptor. They then complex with Smad4, triggering nuclear translocation. The effect of the SMs on the phosphorylation of the canonical SMAD1/5/8 signaling, induced in P19 cells in response to stimulation with BMP-2, was examined.

BMP-2 = target: T1, BMP-2 (Homo sapiens, UniProt P12643); experiment: ATDC5 cell based HTS bioassay: ALP production stimulated by BMP-2 and heparin; design: species or system mouse; settings: for IC50: inhibition of BMP-2-stimulated ALP in ATDC5 cells, 48 hours, tested at 0.62-10 μM; for inhibition at 2.5 µM: ATDC5 cells, read-out: inhibition of BMP-2 (ALP induction)
T1 construct: purchased R&D Systems
T1 sequence (P12643 283-396): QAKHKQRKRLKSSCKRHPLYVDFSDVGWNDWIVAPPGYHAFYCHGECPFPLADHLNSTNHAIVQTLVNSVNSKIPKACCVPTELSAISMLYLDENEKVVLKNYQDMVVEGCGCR
Description: (§1) Poly-L-lysine (Sigma-Aldrich) was added to 384-well plates and was removed after 30 min of incubation at RT. An assay medium containing DMEM/F12, 2% FBS, 100 units/ml penicillin, […] streptomycin (Biological industries) was added to each well. […] ATDC5 cells (Sigma-Aldrich) were harvested, re-suspended in assay medium and added to a final concentration of 2000 cells/well. Finally, heparin (Sigma-Aldrich) was added to a final concentration of 2 μg/ml. The cells were incubated for 48 hours at 37° C. with 5% CO2 in a humidified chamber in the presence or absence of potential small molecule inhibitors of BPM-2. After incubation, ALP levels and cell viability were determined using a completely automated protocol. Cells were washed with PBS, lysed using a lysis buffer containing 0.2% Triton X-100 in PBS supplemented with a protease inhibitor cocktail (Sigma-Aldrich) and incubated for 25 min at RT. ALP level was then determined by addition of CDP-Star® chemiluminescent substrate (Sigma-Aldrich) and measurement of luminescence after incubation for 25 min at RT in the dark. Cell viability was finally determined by addition of CellTiter-Glo® reagent (Biological Industries) and luminescence measurement after 10 min of incubation.
An ATDC5 cell based assay for assessing structure-function relationship of BMP-2 and BMP receptor IA was originally described in Keller et al (Nature Structural & Molecular Biology 2004 11, 481-488). In order to screen a large volume of potential therapeutic agents the ATDC5 cell based bioassay for detecting BMP inhibition was adapted for use in high throughput screening. The bioassay is based on the stimulation of alkaline phosphatase (ALP) production in mouse ATDC5 cells by administration of BMP-2 and heparin, and measurement of ALP levels in the presence of the potential inhibitors. […] This was achieved by using CellTiter-Glo® Luminescent Cell Viability Assay for assessing the cells' viability after the luminescent signal by CDP-Star® has faded. The simultaneous assessment of both ALP production and cells' viability was necessary since potentially toxic tested small molecules may lead to reduced ALP levels by cellular cytotoxicity rather than by interference with BMP-2 signaling. […] Particulars of the bioassay are detailed in the Experimental procedures section above.
A library of small molecules (SM) was screened using the High Throughput Screening bioassay described above. About 7600 SMs were screened, from the Maybridge library, which consists of organic “drug-like” compounds, using the pre-plated HitFinder™ Collection. […] The SM were tested at various concentrations, i.e. at 0.62 μM, 1.25 μM, 2.5 μM, 5 μM and 10 μM.

BMP-4 = target: T2, BMP-4 (Homo sapiens, UniProt P12644); experiment: ATDC5 bioassay with rhBMP-4 stimulation instead of rhBMP-2 (ALP); format: cell-based, mouse; settings: ATDC5 cells; for effect on ALP production induced by BMP-4 compared with BMP-2: 2.5 μM and 5 μM; for inhibition at 2.5 µM: read-out: inhibition of BMP-4 (ALP induction)
T2 sequence (P12644 293-408): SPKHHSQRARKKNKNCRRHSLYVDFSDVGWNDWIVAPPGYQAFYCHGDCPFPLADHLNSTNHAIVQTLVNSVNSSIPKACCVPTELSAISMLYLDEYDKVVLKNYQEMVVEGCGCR
Description: as §1
Due to the high homology between BMP-2 and BMP-4, the ability of the SMs to inhibit BMP-2 and BMP-4 signaling (similar to the effect of the anti-BMP-2/4 mAb) was also examined.

RR-EAE mice = experiment: Demyelination in EAE: LFB-H&E staining of lumbar spinal cord; format: in vivo; settings: day 48 post immunization (vehicle 28.3±1.8%)
Description: FIGS. 6A-6B—The effect of SM1, SM6, SM7 and SM9 on demyelination. FIG. 6A: Representative images of the lumbar spinal cord section, stained with LFB (anterio lateral funiculus), of mice treated with vehicle, SM1 10 mg/kg/day, SM1 20 mg/kg/day, SM7 10 mg/kg/day, SM9 10 mg/kg/day, SM9 20 mg/kg/day, SM6 10 mg/kg/day and SM6 20 mg/kg/day. FIG. 6B: Quantification of myelinated area. […] Quantification was performed using Image J software on 6 mice/group and 3 sections/mouse.
The direct effect of the SMs on the demyelination and remyelination processes was analyzed. Spinal cord was removed from 6 mice of each group and the lumbar segment of the spinal cord was sectioned (10 μm coronal paraffin section) and was processed for LFB-H&E (luxol fast blue with H&E) for myelin and infiltrates staining.

Compound | reduction in p-SMAD/tubulin compared to stimulation with BMP-2 alone (SMAD1/5/8 signaling; 2.5 μM) [%] | reduction in p-SMAD/tubulin compared to stimulation with BMP-2 alone (SMAD1/5/8 signaling; 5 μM) [%] | IC50 (BMP-2) [µM] | effect on ALP production induced by BMP-4 compared with BMP-2 (BMP-4) | % myelinated area (LFB-stained area of total spinal cord section) (RR-EAE mice; 10 mg/kg) [%] | inhibition at 2.5 µM (BMP-2) [%] | inhibition at 2.5 µM (BMP-4) [%] | % myelinated area (LFB-stained area of total spinal cord section) (RR-EAE mice; 20 mg/kg) [%]
COC(=O)c1sccc1N/N=C(\C#N)S(=O)(=O)c1cccs1 [SM1, Methyl 3-[(2E)-2-[cyano(thiophen-2-ylsulfonyl)methylidene]hydrazinyl]thiophene-2-carboxylate] | 24.2 | 19.9 | 2.6 | same effect |  |  |  | 
O=C(Nc1cccc(C(F)(F)F)c1)c1ccc([N+](=O)[O-])o1 [SM6, N2-[3-(trifluoromethyl)phenyl)-5-nitro-2-furamide] |  |  | 9.7 | same effect | 34.8±1.6 |  |  | 
N#Cc1c(O)nsc1Nc1ccccc1C(F)(F)F [SM7, 3-hydroxy-5-[2-(trifluoromethyl)aniline]isothiazole-4-carbonitrile] | 40.0 |  | 2.2 | inhibit BMP-2 slightly more than BMP-4 | 34.0±0.8 | 47.3 | 29.8 | 
CS(=O)(=O)c1noc(-c2ccc(Cl)cc2)c1C#N [SM9, 5-(4-chlorophenyl)-3-methylsulfonyl-1,2-oxazole-4-carbonitrile] | 42.7 |  | 4.4 | inhibit BMP-2 slightly more than BMP-4 |  | 29.1 | 18.9 | 34.6±1.6

Source: patent US11779565B2, “Small organic molecules for use in the treatment of neuroinflammatory disorders” (THE MEDICAL RESEARCH, INFRASTRUCTURE AND HEALTH SERVICES …, priority 2017, dated 2023)
